Results from patent US4421768A, “Fluorinated diamino-heptene and-heptyne derivatives” (Merrell Toraude et Compagnie, priority 1982, dated 1983).
pKi: −log10 of the molar value. Where a name gives a salt, the structure may show the parent alone. Read-outs that look alike come from different tables or passages of the source.

Biological target: T1, Ornithine decarboxylase (ODC) (Rattus norvegicus, UniProt P09057)
T1 construct: prepared from the livers of rats which have been injected with thioacetamide; from tissue; host or cells: liver of thioacetamide-injected rats, purified about ten fold by acid treatment at pH 4.6
T1 sequence (P09057 1-461): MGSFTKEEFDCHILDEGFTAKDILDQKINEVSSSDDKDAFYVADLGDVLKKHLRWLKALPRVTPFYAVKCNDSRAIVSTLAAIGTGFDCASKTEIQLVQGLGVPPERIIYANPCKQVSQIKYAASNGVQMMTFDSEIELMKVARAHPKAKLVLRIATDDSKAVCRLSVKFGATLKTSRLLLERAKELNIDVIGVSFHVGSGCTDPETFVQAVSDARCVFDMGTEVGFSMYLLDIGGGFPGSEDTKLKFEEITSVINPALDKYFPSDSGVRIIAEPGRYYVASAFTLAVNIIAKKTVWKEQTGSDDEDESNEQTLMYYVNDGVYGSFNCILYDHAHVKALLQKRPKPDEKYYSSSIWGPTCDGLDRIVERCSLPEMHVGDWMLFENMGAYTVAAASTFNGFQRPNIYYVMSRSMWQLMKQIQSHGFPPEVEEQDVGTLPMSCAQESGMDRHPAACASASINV
Assay: In vitro inhibition of ornithine decarboxylase (ODC) prepared from livers of thioacetamide-injected rats (time-dependent inactivation, 14CO2 release)
Assay type: biochemical
Description: Ornithine decarboxylase (ODC) is prepared from the livers of rats which have been injected with thioacetamide (150 mg/kg of body weight) 18 hrs before sacrifice, and is purified about ten fold by acid treatment at pH 4.6 as described by Ono et al (Biochem. Biophys. Acta 284, 285 (1972)). The stock solution of ODC is comprised of protein (16 mg/mL), sodium phosphate buffer (30 mM, pH 7.1), dithiothreitol (5 mM) and pyridoxal phosphate (0.1 mM). The specific activity of this stock solution is 0.12 nmol of CO2 /min per mg of protein. For a typical experiment 320 μl of this stock solution are mixed at time 0 with 80 μl of a solution of the inhibitor in water and incubated at 37°. At different times 50 μl aliquots are transferred into a 1-mL assay medium containing sodium phosphate (30 mM, pH 7.1), dithiothreitol (5 mM), pyridoxal phosphate (0.1 mM), L-ornithine (0.081 μmol), and DL-[1-^14 C] ornithine (0.043 μmol, 58 Ci/mol, Amersham) in a closed vessel in which a filter paper moistered with 50 μl hyamine hydroxide (1 M) is fitted. The reaction is allowed to proceed for 60 min at 37° C. and then terminated by addition of 0.5 ml of 40% trichloroacetic acid. After an additional 30 min the CO2 absorbed on the filter paper is counted in a standard scintillation cocktail, KI (apparent dissociation constant) and .tau.50 (half-life, at infinite concentration of inhibitor are calculated according to the method of Kitz and Wilson (J. Biol. Chem., 237, 3245 (1962)).
When tested according to the above-described procedure, the compounds of Examples I and 2 gave the results shown below. Half-life (t1/2) at 10 μM is also set forth below.

Compound	pKi (rat liver ODC, 37°, pH 7.1, calculated by method of Kitz and Wilson, read-out: KI (apparent dissociation constant))	T50 (.tau.50, half-life at infinite concentration of inhibitor) (rat liver ODC, 37°, pH 7.1, infinite concentration of inhibitor, method of Kitz and Wilson)	t1/2 (half-life at 10 μM) (rat liver ODC, 37°, pH 7.1, inhibitor 10 μM)	pKi
C#CC(N)CCC(N)CF.Cl.Cl (stereo not shown) [Example 1, 1-FLUORO-2,5-DIAMINO-6-HEPTYNE DIHYDROCHLORIDE]	4.30	3.7 min	22 min	
C#CC(N)CCC(N)C(F)F (stereo not shown) [Example 2, 1,1-DIFLUORO-2,5-DIAMINO-6-HEPTYNE, DIHYDROCHLORIDE]				2.82
